In ChEMBL document CHEMBL1147956 (Bioorg Med Chem Lett, 2007):

Target: T1, Inhibitor of nuclear factor kappa-B kinase subunit beta (Homo sapiens, UniProt O14920)
T1 sequence (O14920 whole entry): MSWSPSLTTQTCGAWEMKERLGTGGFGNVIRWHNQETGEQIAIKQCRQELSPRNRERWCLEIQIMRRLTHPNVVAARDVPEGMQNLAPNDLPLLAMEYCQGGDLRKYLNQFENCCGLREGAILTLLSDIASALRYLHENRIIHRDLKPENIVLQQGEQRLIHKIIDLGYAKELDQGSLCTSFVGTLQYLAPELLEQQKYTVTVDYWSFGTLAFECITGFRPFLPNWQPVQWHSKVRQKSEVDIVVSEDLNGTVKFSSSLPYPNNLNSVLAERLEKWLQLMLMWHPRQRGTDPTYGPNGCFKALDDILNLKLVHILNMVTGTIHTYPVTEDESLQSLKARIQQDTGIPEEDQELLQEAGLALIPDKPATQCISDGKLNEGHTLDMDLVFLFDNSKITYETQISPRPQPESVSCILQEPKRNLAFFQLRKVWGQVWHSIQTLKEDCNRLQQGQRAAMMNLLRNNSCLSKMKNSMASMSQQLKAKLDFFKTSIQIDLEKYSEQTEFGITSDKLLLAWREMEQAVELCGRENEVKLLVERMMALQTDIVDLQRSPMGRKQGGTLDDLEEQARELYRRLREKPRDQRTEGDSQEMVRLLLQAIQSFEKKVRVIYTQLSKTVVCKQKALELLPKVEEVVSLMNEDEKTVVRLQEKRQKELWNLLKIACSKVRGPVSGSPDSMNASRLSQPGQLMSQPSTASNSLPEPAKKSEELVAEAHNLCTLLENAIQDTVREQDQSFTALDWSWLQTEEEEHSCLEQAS
Test: Inhibition of IKK-beta after 30 mins

- IC50: 400 nM
Structure (SMILES): Cc1cc(-c2c3ccccc3c(Br)c3sc(C)c(C)c23)cc(C)c1O[C@H](Cc1ccccc1)C(=O)O [ERTIPROTAFIB]
